Measurements published in PubChem BioAssay AID330 (DTP/NCI, 2004).
Values joined by “and” are separate entries in the source; they are usually repeats but may differ in a detail not shown here. Equal values may be shown once. Inconclusive results and toxic doses are left out. How the source made its calls: active means survival T/C of 150% or more; inactive means T/C below 125% in these data.

Tested on: P388 leukemia ip, CD2F1 mice, survival T/C
Experiment: NCI In Vivo Anticancer Drug Screen. Data for tumor model P388 Leukemia (intraperitoneal) in CD2F1 (CDF1) mice
Conditions: endpoint: median survival time, higher = longer survival
Procedure, shortened: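 Mice carrying the transplanted tumor received test compound or vehicle. Survival was recorded in each group, and the value is the treated-group measurement divided by that of the vehicle-treated control group.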

[1] = dose: 60.0 mg/kg/injection, schedule: Q01DX005 (ip), vehicle: saline with Tween-80
[2] = dose: 120.0 mg/kg/injection, schedule: Q01DX005 (ip), vehicle: saline with Tween-80
[3] = dose: 240.0 mg/kg/injection, schedule: Q01DX005 (ip), vehicle: saline with Tween-80
[4] = dose: 50.0 mg/kg/injection, schedule: Q01DX009 (ip), vehicle: Klucel (hydroxypropylcellulose) (HPC)
[5] = dose: 100.0 mg/kg/injection, schedule: Q01DX009 (ip), vehicle: Klucel (hydroxypropylcellulose) (HPC)
[6] = dose: 25.0 mg/kg/injection, schedule: Q01DX009 (ip), vehicle: saline with Tween-80
[7] = dose: 50.0 mg/kg/injection, schedule: Q01DX009 (ip), vehicle: saline with Tween-80
[8] = dose: 100.0 mg/kg/injection, schedule: Q01DX009 (ip), vehicle: saline with Tween-80
[9] = dose: 200.0 mg/kg/injection, schedule: Q01DX009 (ip), vehicle: saline with Tween-80
[10] = dose: 50.0 mg/kg/injection, schedule: Q01DX005 (ip), vehicle: saline
[11] = dose: 100.0 mg/kg/injection, schedule: Q01DX005 (ip), vehicle: saline
[12] = dose: 200.0 mg/kg/injection, schedule: Q01DX005 (ip), vehicle: saline

Measured: T/C

CCN(CC)P(=S)(c1ccccc1CCP(=S)(c1ccccc1)c1ccccc1)N(CC)CC
inactive: [1] 92 % of control | [2] 93 % of control | [3] 91 % of control

CCOC(=O)/C(C=NCC(C)(CN=C/C(C(=O)OCC)=C(/C)O)CN=C/C(C(=O)OCC)=C(/C)O)=C(\C)O (centres undefined)
inactive: [4] 93 % of control | [5] 90 % of control | dose: 200.0 mg/kg/injection, schedule: Q01DX009 (ip), vehicle: Klucel (hydroxypropylcellulose) (HPC) 87 % of control

CCC(/C=C/c1ccc(OC)cc1)=N/Nc1ccccc1
inactive: dose: 30.0 mg/kg/injection, schedule: Q01DX005 (ip), vehicle: other 109 % of control | dose: 60.0 mg/kg/injection, schedule: Q01DX005 (ip), vehicle: other 100 % of control | dose: 120.0 mg/kg/injection, schedule: Q01DX005 (ip), vehicle: other 103 % of control and 109 % of control | dose: 240.0 mg/kg/injection, schedule: Q01DX005 (ip), vehicle: other 113 % of control

FC(F)(F)SN1CN(SC(F)(F)F)CN(SC(F)(F)F)CN(SC(F)(F)F)C1
inactive: dose: 60.0 mg/kg/injection, schedule: Q01DX005 (ip), vehicle: saline 103 % of control and 96 % of control | dose: 120.0 mg/kg/injection, schedule: Q01DX005 (ip), vehicle: saline 96 % of control | dose: 240.0 mg/kg/injection, schedule: Q01DX005 (ip), vehicle: saline 100 % of control

CCN(CC)CCNC1=CC(=S)NC(C)(C)C1
inactive: [6] 103 % of control | [7] 94 % of control | [8] 106 % of control | [9] 94 % of control

C=CCNCC(O)C(F)(F)C(F)(F)C(F)(F)C(F)(F)C(F)(F)C(F)(F)F (centres undefined)
inactive: [1] 101 % of control | [2] 101 % of control | [3] 109 % of control

C=C(C)C1CC2(C)C(C)CC(O)CC2C(OC(=O)C=C(C)C)C1O (centres undefined)
inactive: dose: 25.0 mg/kg/injection, schedule: Q01DX009 (ip), vehicle: Klucel (hydroxypropylcellulose) (HPC) 93 % of control | [4] 96 % of control | [5] 97 % of control

Clc1ncccc1SSc1cccnc1Cl
inactive: [7] 104 % of control | [8] 100 % of control | [9] 104 % of control

CC1=C[P+](c2ccccc2)(c2ccccc2)C=C(c2ccccc2)O1
inactive: dose: 3.12 mg/kg/injection, schedule: Q01DX005 (ip), vehicle: saline 105 % of control | dose: 6.25 mg/kg/injection, schedule: Q01DX005 (ip), vehicle: saline 122 % of control and 123 % of control | dose: 12.5 mg/kg/injection, schedule: Q01DX005 (ip), vehicle: saline 118 % of control

O=[N+]([O-])/C(=C/c1ccccc1)c1ccccc1
inactive: dose: 6.25 mg/kg/injection, schedule: Q01DX009 (ip), vehicle: saline with Tween-80 109 % of control | dose: 6.25 mg/kg/injection, schedule: Q04DX003 (ip), vehicle: saline with Tween-80 109 % of control | dose: 12.5 mg/kg/injection, schedule: Q01DX009 (ip), vehicle: saline with Tween-80 118 % of control | dose: 12.5 mg/kg/injection, schedule: Q04DX003 (ip), vehicle: saline with Tween-80 100 % of control | [6] 118 % of control | dose: 25.0 mg/kg/injection, schedule: Q04DX003 (ip), vehicle: saline with Tween-80 113 % of control

O=c1c(O)cccn1C1OC(CO)C(O)C1O (centres undefined)
inactive: [10] 99 % of control and 97 % of control and 104 % of control | [11] 99 % of control and 101 % of control and 117 % of control | [12] 104 % of control [middle of 4 runs] | dose: 400.0 mg/kg/injection, schedule: Q01DX005 (ip), vehicle: saline 102 % of control and 112 % of control and 87 % of control

c1ccc(CON(CCc2ccncc2)CCc2ccncc2)cc1
inactive: [10] 97 % of control | [11] 103 % of control | [12] 101 % of control

COc1c2ccccc2c(C)c2ccc3ccccc3c12
inactive: dose: 100.0 mg/kg/injection, schedule: Q01DX001 (ip), vehicle: Klucel (hydroxypropylcellulose) (HPC) 107 % of control | dose: 200.0 mg/kg/injection, schedule: Q01DX001 (ip), vehicle: Klucel (hydroxypropylcellulose) (HPC) 111 % of control
